Where a name gives a salt, the structure may show the parent alone.
How the values were obtained:
[1] = tested on: Cellular Class IIa HDAC activity; test: Inhibition of cellular Class IIa HDAC activity; Cell (Lys-TFA) substrate, Jurkat E6-1 cells; type: cell-based; conditions: Boc-Lys(TFA)-AMC substrate
Source text: Example 29: Analysis of Inhibition of Cellular Class IIa HDAC Activity with Class IIa Histone Deacetylase (HDAC) Inhibitors; Cell (Lys-TFA) Substrate
(§1) The potency of Class IIa Histone Deacetylase (HDAC) inhibitors was quantified by measuring the cellular histone deacetylase enzymatic activity using the fluorogenic substrate, Boc-Lys(TFA)-AMC. After penetration in Jurkat E6-1 cells, the substrate was deacetylated to Boc-Lys-AMC. After cell lysis and cleavage by trypsin, the fluorophore AMC was released from the deacetylated substrate only. The fluorescence of the sample was directly related to the histone deacetylase activity in the sample.
Jurkat E6.1 Cell Culture and Plating.
(§2) Jurkat E6.1 cells were cultured according to standard cell culture protocols in Jurkat E6.1 Growth Media (RPMI without phenol red, 10% FBS, 10 mM HEPES, and 1 mM Sodium Pyruvate). Jurkat E6.1 cells were counted using a Coulter Counter and resuspended in Jurkat E6.1 growth media at a concentration of 75,000 cells/35 μL. 35 μL or 75,000 cells was seeded into Greiner microtitre assay plates. The plates were then incubated at 37° C. and 5% CO2 while other assay components were being prepared.
(§3) Serially Dilute HDAC Inhibitor Compounds.
(§4) Serial dilutions of the HDAC inhibitors and control reference compound (1-(5-(3-((4-(1,3,4-oxadiazol-2-yl)phenoxy)methyl)-1,2,4-oxadiazol-5-yl)thiophen-2-yl)-2,2,2-trifluoroethanone) were made by first resuspending the lyophilized compound to a final concentration of 10 mM in 100% DMSO. Stocks of 70 μL aliquots of the 10 mM compound in DMSO were prepared and stored at −20° C. From one stock aliquot of each tested compound and the reference compound, a 16-point serial dilution was prepared according to Table 1 using a 125 μL 16-channel Matrix multi-channel pipette.
(§5) 2 μL (200×) of each diluted solution and each control (full activity: 100% DMSO alone or full inhibition 1 mM) was stamped into V-bottom polypropylene 384-well compound plates using either the Bravo, Janus, or 12.5 μL 16-channel Matrix multi-channel pipette. Each well with the 200× compound solution was diluted 1:20 by the addition of 38 μL Jurkat assay buffer+DMSO (9.5% DMSO, RPMI without phenol red, 0.09% FBS, 9 mM Hepes, and 0.9 mM Sodium Pyruvate equilibrated to r.t.)
Prepare 5× (500 μM) Boc-Lys(TFA)-AMC Substrate.
(§6) 5× (500 μM) substrate was prepared just prior to the addition to the assay. The 5× substrate was prepared by diluting a 100 mM Boc-Lys(TFA)-AMC in DMSO solution 1:200 by adding it drop-wise to Jurkat assay medium (RPMI without phenol red, 0.1% FBS, 10 mM Hepes, and 1 mM Sodium Pyruvate equilibrated to 37° C.) while vortexing at slow speed to prevent precipitation.
(§7) 10 mL of 3× lysis buffer was prepared with 8.8 mL of 3× stock lysis buffer (50 mM Tris-HCl, pH 8.0, 137 mM NaCl, 2.7 mM KCl, 1 mM MgCl2, 1% Nonidet P40 Substitute equilibrated to r.t.) and 1.2 mL of 3 mg/mL Trypsin equilibrated to r.t.
(§8) 5 μL of each solution of 1:20 diluted compound from above was transferred to the Greiner microtitre assay plates with 75,000 cells/well using the Bravo. Cells were then incubated for 2 hours at 37° C. and 5% CO2. The assay was then started by adding 10 μL of 5× (500 μM) substrate to the assay plate using either the Bravo or 16-channel Matrix multi-channel pipette. The cells were then incubated for 3 hours at 37° C. and 5% CO2. Next, 25 μL of 3× lysis buffer was added to each well using either the 125 μL 16 channel pipette or the Bravo. The assay plate was then incubated overnight (15-16 hours) at 37° C. and 5% CO2. The following day, the plates were shaken on an orbital shaker for 1 minute at 900 rpm. Finally the top read fluorescence (Excitation: 355 nm, Emission: 460 nm) was measured using PerkinElmer EnVision.

[2] = molecular target: human catalytic domain HDAC4 protein (amino acids 648-1032) (Homo sapiens (Human), UniProt P56524); test: HDAC4 catalytic domain enzymatic activity, fluorogenic substrate Boc-Lys(TFA)-AMC; conditions: read-out: HDAC4 Biochemical IC50
human catalytic domain HDAC4 protein (amino acids 648-1032), sequence (P56524 648-1032): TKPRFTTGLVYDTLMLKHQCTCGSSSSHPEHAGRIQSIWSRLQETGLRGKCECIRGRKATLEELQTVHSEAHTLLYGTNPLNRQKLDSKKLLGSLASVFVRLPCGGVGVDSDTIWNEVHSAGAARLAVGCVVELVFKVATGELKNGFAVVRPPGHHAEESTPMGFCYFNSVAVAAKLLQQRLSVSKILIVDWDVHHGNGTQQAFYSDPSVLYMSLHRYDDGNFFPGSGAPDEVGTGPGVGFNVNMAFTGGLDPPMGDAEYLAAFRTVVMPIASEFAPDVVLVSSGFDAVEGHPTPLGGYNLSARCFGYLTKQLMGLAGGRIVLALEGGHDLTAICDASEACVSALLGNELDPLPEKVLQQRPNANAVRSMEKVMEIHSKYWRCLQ
Source text: Example 25: Analysis of Inhibition of HDAC4 with Class IIa Histone Deacetylase (HDAC) Inhibitors
The potency of Class IIa Histone Deacetylase (HDAC) inhibitors was quantified by measuring the Histone Deacetylase 4 (HDAC4) catalytic domain enzymatic activity using the fluorogenic substrate, Boc-Lys(TFA)-AMC. The substrate was deacetylated to Boc-Lys-AMC by HDAC4. […] The fluorescence of the sample was directly related to the histone deacetylase activity in the sample.
as §3
as §4, with “dimethyl sulfoxide (DMSO).” for “DMSO.”, “60” for “70”, “pipette (Matrix Technologies Ltd).” for “pipette.”
2 μL (200×) of each diluted solution and each control (full activity: 100% DMSO alone or full inhibition 1 mM) was stamped into V-bottomed polypropylene 384-well compound plates using either the Bravo (384-well head from Agilent) or 12.5 μL 16-channel Matrix multi-channel pipette (Matrix Technologies Ltd). Each well with the 200× compound solution was diluted 1:20 by the addition of 38 μL assay buffer+DMSO (10.5% DMSO, 45 mM Tris-HCl, 123 mM NaCl, 2.4 mM KCl, and 0.9 mM MgCl2 at pH 8.0 and equilibrated to r.t.).
Prepare HDAC4 Catalytic Domain Enzyme (0.2 μg/mL).
The HDAC4 catalytic domain enzyme was human catalytic domain HDAC4 protein (amino acids 648-1032) with a C-terminal 6× histidine tag, produced by BioFocus. A working solution of enzyme was prepared from a […] stock aliquot of HDAC4 catalytic domain (thawed on ice) diluted to 0.2 μg/mL with assay buffer (50 mM Tris-HCl, 137 mM NaCl, 2.7 mM KCl, and 1 mM MgCl2 at pH 8 and equilibrated to r.t.) just prior to the addition of the enzyme to the assay.
Prepare 5× (50 μM) Boc-Lys(TFA)-AMC Substrate.
5× (50 μM) substrate was prepared just prior to the addition to the assay. A 1 mM substrate stock was made by diluting a 100 mM Boc-Lys(TFA)-AMC in DMSO solution 1:100 by adding it drop-wise to assay buffer (equilibrated to r.t.) while vortexing at slow speed to prevent precipitation. The 5× substrate was prepared by diluting the 1 mM substrate solution 1:20 by adding it drop-wise to assay buffer (equilibrated to r.t.) while vortexing at slow speed to prevent precipitation.
Prepare 3× (30 μM) Developer/Stop Solution.
3× (30 μM) Developer/Stop Solution was prepared just prior to addition to the plate by diluting a stock solution of 10 mM reference compound 1:333 in 25 mg/mL trypsin (PAA Laboratories Ltd.) equilibrated to r.t.
5 μL of each solution of 1:20 diluted compound from above was transferred to a clear bottomed, black, 384-well assay plate using the Bravo or the Janus (384-well MDT head from Perkin Elmer). Using a 16-channel Matrix multi-channel pipette, 35 μL of the working solution of HDAC4 catalytic domain enzyme (0.2 μg/mL in assay buffer) was transferred to the assay plate. The assay was then started by adding 10 μL of 5× (50 μM) substrate to the assay plates using either the Bravo, Janus or 16-channel Matrix multi-channel pipette. The assay plate was then shaken for two minutes on an orbital shaker at 900 rpm (rotations per minute). Next the plate was incubated for 15 minutes at 37° C. The reaction was stopped by adding 25 μL of 3× (30 μM) developer/stop solution to the assay plates using either the Bravo, Janus or a 16-channel Matrix multi-channel pipette. Assay plates were then shaken for 5 minutes on an orbital shaker at 1200 rpm. Next, the assay plates were incubated at 37° C. for 1 hour in a tissue culture incubator. […]

[3] = tested on: Cellular Class I HDAC activity; test: Inhibition of cellular Class I HDAC activity; Cell (Lys-Ac) substrate, Jurkat E6-1 cells; type: cell-based; conditions: Boc-Lys(Ac)-AMC substrate
Source text: as §1, §2, §4, §5, §6, §7, §8
Example 30: Analysis of Inhibition of Cellular Class I HDAC Activity with Class IIa Histone Deacetylase (HDAC) Inhibitors; Cell (Lys-Ac) Substrate
The Class I HDAC activity of Class IIa Histone Deacetylase (HDAC) inhibitors was quantified by measuring the cellular histone deacetylase enzymatic activity using the fluorogenic substrate, Boc-Lys(Ac)-AMC. This was performed according to the procedure in Example 29, using Boc-Lys(Ac)-AMC substrate in place of Boc-Lys(TFA)-AMC.

Structure (SMILES) | IC50 [1] [nM] | IC50 [2] [nM] | IC50 [3] [µM]
C[C@H](CN1CCCC(OC(F)F)C1)NC(=O)c1ccc(-c2noc(C(F)(F)F)n2)cc1 (single isomer, unassigned) [Example 10] | 7 | 3 | 1.5
C[C@H](CN1CCc2ccccc2C1)NC(=O)c1ccc(-c2noc(C(F)(F)F)n2)cc1 [Example 7, (R)—N-(1-(3,4-Dihydroisoquinolin-2(1H)-yl)propan-2-yl)-4-(5-(trifluoromethyl)-1,2,4-oxadiazol-3-yl)benzamide] | 18 | 9 | 2.4
O=C(N[C@H](CN1CCCC1)C1CC1)c1ccc(-c2noc(C(F)(F)F)n2)cc1 [Example 5, (S)—N-(1-Cyclopropyl-2-(pyrrolidin-1-yl)ethyl)-4-(5-(trifluoromethyl)-1,2,4-oxadiazol-3-yl)benzamide] | 710 | 48 | 25.7
O=C(NCCN1CC2CCC(C2)C1)c1ccc(-c2noc(C(F)(F)F)n2)cc1 [Example 2, N-(2-(3-Azabicyclo[3.2.1]octan-3-yl)ethyl)-4-(5-(trifluoromethyl)-1,2,4-oxadiazol-3-yl)benzamide] | 330 | 140 | 4.9
C[C@H](CN1CC2CC2C1)NC(=O)c1ccc(-c2noc(C(F)(F)F)n2)cc1 (stereo partly drawn) [Example 4, N-((2R)-1-(3-Azabicyclo[3.1.0]hexan-3-yl)propan-2-yl)-4-(5-(trifluoromethyl)-1,2,4-oxadiazol-3-yl)benzamide] | 51 | 8 | 6.9
C[C@H](CN1CCC2(CC1)CC2)NC(=O)c1ccc(-c2noc(C(F)(F)F)n2)cc1 [Example 12, (R)—N-(1-(6-Azaspiro[2.5]octan-6-yl)propan-2-yl)-4-(5-(trifluoromethyl)-1,2,4-oxadiazol-3-yl)benzamide] | 58 | 30 | 4
C[C@H](CN1CCCCCC1)NC(=O)c1ccc(-c2noc(C(F)(F)F)n2)cc1 [Example 13, (R)—N-(1-(Azepan-1-yl)propan-2-yl)-4-(5-(trifluoromethyl)-1,2,4-oxadiazol-3-yl)benzamide] | 30 | 11 | 1.7
O=C(N[C@@H](CN1CCCC1)C1CC1)c1ccc(-c2noc(C(F)(F)F)n2)cc1 [Example 6, (R)—N-(1-Cyclopropyl-2-(pyrrolidin-1-yl)ethyl)-4-(5-(trifluoromethyl)-1,2,4-oxadiazol-3-yl)benzamide] | 750 | 77 | > 50

Continued, values first:

IC50 [1] [nM] | IC50 [2] [nM] | IC50 [3] [µM] | Structure (SMILES)
1030 | 134 | 33.7 | C[C@H](CN1CCC[C@@H]1C)NC(=O)c1ccc(-c2noc(C(F)(F)F)n2)cn1 [Example 24, N—((R)-1-((S)-2-Methylpyrrolidin-1-yl)propan-2-yl)-5-(5-(trifluoromethyl)-1,2,4-oxadiazol-3-yl)picolinamide]
9 | 4 | 1.1 | C[C@H](CN1CC2CCC2C1)NC(=O)c1ccc(-c2noc(C(F)(F)F)n2)cc1 (stereo partly drawn) [Example 19, N-((2R)-1-(3-Azabicyclo[3.2.0]heptan-3-yl)propan-2-yl)-4-(5-(trifluoromethyl)-1,2,4-oxadiazol-3-yl)benzamide]
16 | 4 | 3.1 | C[C@H](CN1CC2CCCC21)NC(=O)c1ccc(-c2noc(C(F)(F)F)n2)cc1 (single isomer, unassigned) [Example 21]
86 | 20 | 6.1 | C[C@H](CN1CC2C(C1)C2(C)C)NC(=O)c1ccc(-c2noc(C(F)(F)F)n2)cc1 (stereo partly drawn) [Example 22, N-((2R)-1-(6,6-Dimethyl-3-azabicyclo[3.1.0]hexan-3-yl)propan-2-yl)-4-(5-(trifluoromethyl)-1,2,4-oxadiazol-3-yl)benzamide]
28 | 12 | 0.69 | C[C@H](CN1CC2CCCC2C1)NC(=O)c1ccc(-c2noc(C(F)(F)F)n2)cc1 (stereo partly drawn) [Example 17, 2-((R)-2-(4-(5-(Trifluoromethyl)-1,2,4-oxadiazol-3-yl)benzamido)propyl)octahydrocyclopenta[c]pyrrol-2-ium formate]
